From patent US8460274B2, “Long term drug delivery devices with polyurethane-based polymers and their manufacture” (Endo Pharmaceuticals Solutions Inc., priority 2008, dated 2013)
Several values for one entry are separate records, joined by “and”; a condition that tells them apart may be missing. Equal entries are not always repeated. Each block holds one compound with its values, some of them ahead of it.

Tests used:
[1] = In vitro elution of naltrexone from Tecophilic HP-60D-35 polyurethane implants (Example 2); format: physicochemical; conditions: HP-60D-35 implants -1, -2, -3, in vitro
Description: HP-60D-35 is extruded to tubes with thickness of 0.30 mm with inside diameter of 1.75 mm. The tubes are then cut into 32 mm in length. One side of the tube is sealed with heat using a heat sealer. The sealing time is less than one minute. Six pellets of naltrexone are loaded into the tubes and both open sides of the tubes are sealed with heat. Each pellet weighs approximately 15.0 mg for a total of 91 mg. The second end open of the tube is sealed with heat in the same way as for the first end. The loaded implant is then conditioned and primed. The conditioning takes place at room temperature in a 0.9% saline solution for one week. Upon completion of the conditioning, the implant undergoes priming. The priming takes place at room temperatures in a 1.8% saline solution for one week. Each implant is tested in vitro in a medium selected to mimic the pH found in the human body. The temperature of the selected medium was kept at approximately 37° C. during the testing. The release rates are shown on FIG. 5 and Table 3.

[2] = Release rates of active agents from Tecophilic, Tecoflex and Carbothane polyurethane implants (Example 6); format: physicochemical
Source text: The release rates have been normalized to surface area of the implant, thereby adjusting for slight differences in the size of the various implantable devices. The active agents were selected to cover a range of solubilities (as indicated by the varying Log P values; for the purposes of the data provided, a Log P value of greater than about 2.0 is considered to be not readily soluble in aqueous solution) and molecular weights. The polyurethanes were selected to have varying affinities for water soluble active agents and varying flexibility (as indicated by the variation in flex modulus).

[3] = cited from earlier work
[4] = In vitro elution of histrelin from Tecophilic HP-60D-20 polyurethane implant (Example 1); format: physicochemical; conditions: HP-60D-20 implant
Source text: HP-60D-20 is extruded to tubes with thickness of 0.30 mm with inside diameter of 1.75 mm. The tubes are then cut into 25 mm in length. One side of the tube is sealed with heat using a heat sealer. The sealing time is less than one minute. Four pellets of histrelin acetate are loaded into the tube. […] Each pellet is comprised of a mixture of 98% histrelin and 2% stearic acid. The second end open of the tube is sealed with heat in the same way as for the first end. The loaded implant is then conditioned and primed. The conditioning takes place at room temperature in a 0.9% saline solution for one day. Upon completion of the conditioning, the implant undergoes priming. The priming takes place at room temperatures in a 1.8% saline solution for one day. Each implant is tested in vitro in a medium selected to mimic the pH found in the human body. The temperature of the selected medium was kept at approximately 37° C. during the testing. The release rates are shown on FIG. 4 and Table 2.

[5] = Carbothane PC-3595A, F.M.: 4,500

SMILES: O=C1CC[C@@]2(O)[C@H]3Cc4ccc(O)c5c4[C@@]2(CCN3CC2CC2)[C@H]1O5 [Naltrexone Base]
Naltrexone Elution Rates ([1]; week 1 of release): 1529.26 µg/day and 767.38 µg/day and 1400.95 µg/day
Naltrexone Elution Rates ([1]; week 2 of release): 1511.77 µg/day and 1280.03 µg/day and 1498.86 µg/day
Naltrexone Elution Rates ([1]; week 3 of release): 1456.01 µg/day and 1635.97 µg/day and 1449.49 µg/day
Naltrexone Elution Rates ([1]; week 4 of release): 1378.27 µg/day and 1607.13 µg/day and 1500.42 µg/day
Naltrexone Elution Rates ([1]; week 5 of release): 1393.05 µg/day and 1614.52 µg/day and 1558.37 µg/day
Naltrexone Elution Rates ([1]; week 6 of release): 1321.71 µg/day and 1550.39 µg/day and 1436.03 µg/day
Naltrexone Elution Rates ([1]; week 7 of release): 1273.07 µg/day and 1424.24 µg/day and 1300.73 µg/day
Naltrexone Elution Rates ([1]; week 8 of release): 1172.82 µg/day and 1246.48 µg/day and 1221.57 µg/day
non-normalized release rate [2, 5]: 25 µg/day
release rate normalized to surface area of the implant [2, 5]: 5.5 μg/day/cm^2
non-normalized release rate ([2]; Tecoflex EG 100A, F.M.: 10,000): 55 µg/day
release rate normalized to surface area of the implant ([2]; Tecoflex EG 100A, F.M.: 10,000): 23 μg/day/cm^2
non-normalized release rate ([2]; Tecophilic HP-60D-05, 5.5% EWC): 50 µg/day
release rate normalized to surface area of the implant ([2]; Tecophilic HP-60D-05, 5.5% EWC): 12.7 μg/day/cm^2
non-normalized release rate ([2]; Tecophilic HP-60D-10, 8.7% EWC): 500 µg/day
release rate normalized to surface area of the implant ([2]; Tecophilic HP-60D-10, 8.7% EWC): 127 μg/day/cm^2
non-normalized release rate ([2]; Tecophilic HP-60D-20, 15% EWC): 1000 µg/day
release rate normalized to surface area of the implant ([2]; Tecophilic HP-60D-20, 15% EWC): 263 μg/day/cm^2
non-normalized release rate ([2]; Tecophilic HP-60D-35, 24% EWC): 1500 µg/day
release rate normalized to surface area of the implant ([2]; Tecophilic HP-60D-35, 24% EWC): 704 μg/day/cm^2
non-normalized release rate ([2]; Tecophilic HP-60D-60, 31% EWC): 2200 µg/day
release rate normalized to surface area of the implant ([2]; Tecophilic HP-60D-60, 31% EWC): 883 μg/day/cm^2
Log P [3]: Log P = 2.07

SMILES: C[C@@H]1C[C@H]2[C@@H]3CCC4=CC(=O)C=C[C@]4(C)[C@@]3(F)[C@@H](O)C[C@]2(C)[C@@]1(O)C(=O)CO [Dexamethasone]
Log P [3]: Log P = 1.93

Histrelin Elution Rates ([4]; week 1 of elution): 451.733 µg/day
Histrelin Elution Rates ([4]; week 2 of elution): 582.666 µg/day
Histrelin Elution Rates ([4]; week 3 of elution): 395.9 µg/day
Histrelin Elution Rates ([4]; week 4 of elution): 310.29 µg/day
Histrelin Elution Rates ([4]; week 5 of elution): 264.92 µg/day
Histrelin Elution Rates ([4]; week 6 of elution): 247.17 µg/day
Histrelin Elution Rates ([4]; week 7 of elution): 215.93 µg/day
Histrelin Elution Rates ([4]; week 8 of elution): 201.78 µg/day
Histrelin Elution Rates ([4]; week 9 of elution): 183.22 µg/day
Histrelin Elution Rates ([4]; week 10 of elution): 174.99 µg/day
Histrelin Elution Rates ([4]; week 11 of elution): 167.72 µg/day
Histrelin Elution Rates ([4]; week 12 of elution): 158.37 µg/day
Histrelin Elution Rates ([4]; week 13 of elution): 153.95 µg/day
Histrelin Elution Rates ([4]; week 14 of elution): 146.46 µg/day
Histrelin Elution Rates ([4]; week 15 of elution): 139.83 µg/day
Histrelin Elution Rates ([4]; week 16 of elution): 129.6 µg/day
Histrelin Elution Rates ([4]; week 17 of elution): 124.46 µg/day
Histrelin Elution Rates ([4]; week 18 of elution): 118.12 µg/day
Histrelin Elution Rates ([4]; week 19 of elution): 120.35 µg/day
non-normalized release rate [2, 5]: 0.4 µg/day
release rate normalized to surface area of the implant [2, 5]: 0.2 μg/day/cm^2
non-normalized release rate ([2]; Tecoflex EG 100A, F.M.: 10,000): 0.5 µg/day
release rate normalized to surface area of the implant ([2]; Tecoflex EG 100A, F.M.: 10,000): 0.3 μg/day/cm^2
non-normalized release rate ([2]; Tecophilic HP-60D-20, 15% EWC): 150 µg/day
release rate normalized to surface area of the implant ([2]; Tecophilic HP-60D-20, 15% EWC): 93 μg/day/cm^2
non-normalized release rate ([2]; Tecophilic HP-60D-35, 24% EWC): 400 µg/day
release rate normalized to surface area of the implant ([2]; Tecophilic HP-60D-35, 24% EWC): 248 μg/day/cm^2
non-normalized release rate ([2]; Tecophilic HP-60D-60, 31% EWC): 500 µg/day
release rate normalized to surface area of the implant ([2]; Tecophilic HP-60D-60, 31% EWC): 309 μg/day/cm^2
SMILES: CCNC(=O)[C@@H]1CCCN1C(=O)[C@H](CCCNC(=N)N)NC(=O)[C@H](CC(C)C)NC(=O)[C@@H](Cc1cn(Cc2ccccc2)cn1)NC(=O)[C@H](Cc1ccc(O)cc1)NC(=O)[C@H](CO)NC(=O)[C@H](Cc1c[nH]c2ccccc12)NC(=O)[C@H](Cc1cnc[nH]1)NC(=O)[C@@H]1CCC(=O)N1 [Histrelin Acetate]

non-normalized release rate ([2]; Carbothane PC-3575A, F.M.: 620): 400 µg/day
release rate normalized to surface area of the implant ([2]; Carbothane PC-3575A, F.M.: 620): 202 μg/day/cm^2
non-normalized release rate [2, 5]: 270 µg/day
release rate normalized to surface area of the implant [2, 5]: 136 μg/day/cm^2
non-normalized release rate ([2]; Tecoflex EG 100A, F.M.: 10,000): 175 µg/day
release rate normalized to surface area of the implant ([2]; Tecoflex EG 100A, F.M.: 10,000): 88 μg/day/cm^2
non-normalized release rate ([2]; Tecoflex EG-65D, F.M.: 37,000): 50 µg/day
release rate normalized to surface area of the implant ([2]; Tecoflex EG-65D, F.M.: 37,000): 25 μg/day/cm^2
non-normalized release rate ([2]; Tecoflex EG-85A, F.M.: 2,300): 2000 µg/day
release rate normalized to surface area of the implant ([2]; Tecoflex EG-85A, F.M.: 2,300): 1053 μg/day/cm^2
non-normalized release rate ([2]; Tecophilic HP-60D-20, 15% EWC): 2000 µg/day
release rate normalized to surface area of the implant ([2]; Tecophilic HP-60D-20, 15% EWC): 1011 μg/day/cm^2
SMILES: Clc1cccc(Cl)c1N=C1NCCN1 [Clonidine Base]
Log P [3]: Log P = 2.56
